The values below are quoted from earlier work in patent US10292948B2 (Torrent Pharmaceuticals Limited, priority 2017, dated 2019).

The conditions of data set [1]: pH dependent.

As for `CC[C@@H](c1cccc(O)c1)[C@@H](C)CN(C)C.Cl` [Tapentadol, 3-[(1R,2R)-3-(dimethylamino)-1-ethyl-2-methylpropyl]phenol], the “time of maximum serum concentration” value (after oral dosing) is “around 1.25 hours”. Besides, for the setting “oral administration”, the “administered tapentadol metabolized (first-pass metabolism)” value was “about 97%” and the bioavailability is reported as 32%. Besides, the “time after administration at which absorption occurs” value (oral formulations) is on record as “at least 45 minutes”. Further, the solubility entry in data set [1] was “highly soluble”.

As a reminder, the bioavailability is the share of a dose that reaches the circulation, judged against a reference dose that is usually intravenous.
